Values quoted from earlier work in patent US20250161386A1, “METHOD OF IMPROVING COGNITIVE FUNCTION IN ADULTS” (SEMPERA ORGANICS, INC., priority 2023, published 2025).

Legend:
[1] = rat, oral administration of H. erinaceus mycelia extract
[2] = test system: pro-brain-derived neurotrophic factor (BDNF); details: mice, after administration

SMILES	time of peak plasma concentration post dose [1] [min]	circulating pro-BDNF [2]
CC(C)C1=C2[C@H]3CCC4=C(O)C(=O)[C@@]5(O)CO[C@H]6O[C@@H]([C@@H]4[C@]65O)[C@]3(C)CC[C@@]2(C)CC1 [erinacine S]	270	
CCCCCCCCCCCCCCCC(=O)OCc1cc(OC)c(C/C=C(\C)CCC=C(C)C)c(O)c1C=O [hericene A]		increase
